Reference: patent publication EP2537923A1, “Method for activation of specific peripheral blood mononuclear cells” (Oncotyrol Center for Personalized Cancer Medicine GmbH, priority 2011, dated 2012)

Test system: human PBMCs
Assay: Stimulation of PBMCs with anti-CD1b antibody and/or IL-2, cytokines measured in culture supernatants
Format: cell-based
Conditions: PMB at 10 µg/ml (60 U/ml); anti-CD16 as Fc γ receptor blocking antibody
Source text: PBMCs are then separated from whole blood or from leukapheresis products. Any method for separating mononuclear cells may be used. For example, the Ficoll separation method, i.e., a Ficoll-Paque density gradient is frequently used. For this purpose LSM1077 Lymphocyte Separation Medium (PAA, Pasching, Austria) in combination with Leucosep (greiner bio-one, Frickenhausen, Germany) can be used for the optimal separation of PBMCs.
The whole PBMCs or the CD56-positive PBMCs obtained are resuspended preferably at cell numbers of 1.0-1.5 x 10^6/ml in a cell culture medium such as RPMI-1640 (Lonza, Basel, Switzerland), AIM-V (Invitrogen, Carlsbad, CA, USA) or CellGro SCGM (CellGenix, Freiburg, Germany). The cell culture medium may be further supplemented with autologous or clinical quality heterologous serum or plasma at 1-20%. There is no limitation for the culture vessels used, which may be a plate, laboratory dish, flask, bag typically used for cell cultivation.
An antibody directed against CDlb (clone B-B5 from Diaclone, Besancon, France or clone WM25 from ImmunoKontact via AMS Biotechnology, Lugano, Switzerland) is added to these cultures. […] Activation as detected by the BD FastImmune (BD Biosciences, San Jose, CA, USA) of NK cells and T cells (both αß T cells and γδ T cells) occurs already within the first 12 to 16 hours. […]

polymyxin B [PMB]
effect on IFN-γ production / response induced by CDlb antibodies: failed to abolish
